Experimental data reported in ChEMBL document CHEMBL1148524, “Novel and selective alpha(v)beta3 receptor peptide antagonist: design, synthesis, and biological behavior” (J Med Chem, 2006).

Biological target: Integrin alpha-V/beta-3 (Homo sapiens, UniProt P05106+P06756)
Assay: Inhibition of adhesion of K562 cells expressing alphaVbeta3 integrin receptor to vitronectin
Type: cell-based

Sequence of Integrin alpha-V/beta-3 (P05106 27-788 limits assumed): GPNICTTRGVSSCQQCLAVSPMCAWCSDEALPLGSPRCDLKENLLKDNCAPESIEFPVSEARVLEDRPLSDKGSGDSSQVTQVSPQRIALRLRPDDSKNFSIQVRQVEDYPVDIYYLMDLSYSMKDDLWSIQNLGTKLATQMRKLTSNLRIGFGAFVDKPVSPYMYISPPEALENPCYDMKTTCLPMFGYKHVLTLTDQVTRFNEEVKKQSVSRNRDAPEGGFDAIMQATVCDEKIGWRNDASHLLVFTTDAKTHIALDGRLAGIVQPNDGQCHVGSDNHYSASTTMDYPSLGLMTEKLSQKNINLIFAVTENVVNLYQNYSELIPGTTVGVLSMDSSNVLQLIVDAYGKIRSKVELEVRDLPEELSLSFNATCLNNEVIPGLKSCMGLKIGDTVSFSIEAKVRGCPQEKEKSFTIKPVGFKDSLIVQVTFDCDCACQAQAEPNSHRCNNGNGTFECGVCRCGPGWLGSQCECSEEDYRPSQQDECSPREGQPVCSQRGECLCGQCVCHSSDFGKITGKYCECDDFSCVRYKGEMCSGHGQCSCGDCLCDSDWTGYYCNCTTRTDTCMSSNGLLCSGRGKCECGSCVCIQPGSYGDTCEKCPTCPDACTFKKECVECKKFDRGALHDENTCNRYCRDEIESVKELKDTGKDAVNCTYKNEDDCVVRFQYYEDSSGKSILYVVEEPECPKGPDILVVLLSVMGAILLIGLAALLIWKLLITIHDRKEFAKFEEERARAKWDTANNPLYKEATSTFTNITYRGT
Sequence of Integrin alpha-V/beta-3 (P06756 31-889 limits assumed): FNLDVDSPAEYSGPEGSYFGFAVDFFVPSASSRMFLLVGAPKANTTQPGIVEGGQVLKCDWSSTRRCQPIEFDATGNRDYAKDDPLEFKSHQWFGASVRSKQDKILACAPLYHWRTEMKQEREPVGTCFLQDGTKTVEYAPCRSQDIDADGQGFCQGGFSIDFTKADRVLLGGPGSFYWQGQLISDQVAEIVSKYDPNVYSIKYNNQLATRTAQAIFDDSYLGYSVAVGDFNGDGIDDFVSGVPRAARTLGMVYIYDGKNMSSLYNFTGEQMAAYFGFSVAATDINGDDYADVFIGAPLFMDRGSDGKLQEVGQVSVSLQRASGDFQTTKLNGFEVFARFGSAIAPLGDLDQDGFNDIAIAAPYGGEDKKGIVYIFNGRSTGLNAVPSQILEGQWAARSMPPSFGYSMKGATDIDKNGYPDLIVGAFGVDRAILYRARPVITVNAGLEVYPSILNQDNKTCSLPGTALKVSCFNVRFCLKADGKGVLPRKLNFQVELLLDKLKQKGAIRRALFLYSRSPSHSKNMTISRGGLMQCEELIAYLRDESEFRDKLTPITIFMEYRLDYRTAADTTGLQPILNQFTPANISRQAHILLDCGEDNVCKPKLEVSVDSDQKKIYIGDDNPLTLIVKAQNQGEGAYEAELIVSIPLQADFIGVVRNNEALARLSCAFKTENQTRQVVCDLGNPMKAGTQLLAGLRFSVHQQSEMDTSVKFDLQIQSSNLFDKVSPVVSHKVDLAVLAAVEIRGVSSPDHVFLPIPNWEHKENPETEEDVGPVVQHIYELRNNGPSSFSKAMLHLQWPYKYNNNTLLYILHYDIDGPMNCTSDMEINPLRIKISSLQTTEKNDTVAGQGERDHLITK
Sequence of Integrin alpha-V/beta-3 (P06756 891-1048 limits assumed): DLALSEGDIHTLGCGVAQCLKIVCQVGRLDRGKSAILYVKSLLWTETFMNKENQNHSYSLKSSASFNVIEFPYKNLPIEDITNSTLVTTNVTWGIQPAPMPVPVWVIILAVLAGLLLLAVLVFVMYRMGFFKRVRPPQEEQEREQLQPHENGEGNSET

SMILES: CSCC[C@H](NC(=O)CC[C@H]1NC(=O)[C@H](CC(=O)O)NC(=O)CNC(=O)[C@H](CCCN=C(N)N)NC(=O)[C@H](CCCCN)NC1=O)C(=O)N[C@@H](CC(=O)O)C(=O)N[C@@H](CC(=O)O)C(=O)N1CCC[C@H]1C(=O)NCC(=O)/N=C(\N)NCCC[C@H](N)C(=O)N[C@@H](CC(N)=O)C(=O)N1CCC[C@H]1C(=O)N[C@@H](Cc1c[nH]cn1)C(=O)N[C@@H](CCCCN)C(=O)NCC(=O)N1CCC[C@H]1C(=O)N[C@@H](C)C(=O)N[C@H](C(=O)O)[C@@H](C)O
- IC50: 880 nM
